{"source": "patent US9974825B2", "about": "“Peptides Des-[Asp1]-[Ala1], angiotensin-(1-7) agonist and pharmaceutical compositions for the treatment of diseases” (UNIVERSIDADE FEDERAL DE MINAS GERAIS, priority 2008, dated 2018)", "tested_on": "aorta rings in absence of functional endothelium", "test": "Vasorelaxation in aorta rings without functional endothelium", "assay_type": "cell-based, mice (C57/BI-6 and FVB/N)", "conditions": "vessels not presenting functional endothelium (Mas+/+ and Mas−/−, C57/BI-6 and FVB/N)", "description": "This example describes the endothelium-dependence of the Ala^1-Ang-(1-7) vasorelaxing activity.\nThe original rings of the descending thoracic aorta (2 mm), free from adipose tissue and connective tissue, were incubated in gasified solution (95% O2 and 5% CO2) of Krebs-Henseleit (mmol/L): NaCl 110.8, KCl 5.9, NaHCO3 25.0, MgSO4 1.07, CaCl2 2.49, NaH2PO4 2.33 and glucose 11.51, under a temperature of 37° C. and a 0.5 g tension, being equilibrated for 1 hour. The functional presence of endothelium was tested by its relaxing capacity produced by acetylcholine [ACh] (10 μM) on vessels precontracted with fenilefrine (0.3 μM). In accordance with experimental protocols for its absence, the endothelium was removed with a slight friction on the vessel internal surface. Only the vessels showing relaxation by acetylcholine above 70% of extended contraction produced by fenilefrine were taken into account. […]\nThe Ala^1-Ang-(1-7) vasorelaxing activity was measured in vessels (Mas+/+ and Mas−/−, of lineages C57/BI-6 and FVB/N) in the presence or absence of precontracted functional endothelium (with approximately a 1.0 g tension) and a submaximum concentration of fenilefrine (0.1 μM). […] The vasodilating effects of Ala^1-Ang-(1-7) and Ang-(1-7) were expressed as a relaxation percentage relative to the maximum contraction induced by fenilefrine. […]"}
{"substance": "Ala^1-Arg^2-Val^3-Tyr^4-Ile^5-His^6-Pro^7 [Ala^1-Ang-(1-7)]", "values": [{"measurement": "vasodilating effect", "result": "abolished"}]}
